According to ChEMBL document CHEMBL1201862, “PubChem BioAssay data set” (2004):
Values belong to the molecule of their own block, whether it stands above or below them. Calls of active or inactive are those of the source.

Columns and labels:
[1] = NIH-3T3 fibroblast cytotoxicity, dose response, cytotoxicity control, cell-based, fluorescence, Alamar Blue, secondary assay (AID 2327); assay type: functional;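 further: NIH-3T3 mouse fibroblasts cultured with fluconazole at 8 µg/mL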
cells [2] = assay type: functional, cell-based
[3] = fluconazole-exposed Candida albicans growth modulators – fluorescence, retest, confirmation (AID 2467); assay type: functional, cell-based
cells [4] = assay type: functional, cell-based; remark: listed apart in the source
[5] = target: T1, Serine/threonine-protein phosphatase (Candida dubliniensis (strain CD36 / CBS 7987 / NCPF 3949 / NRRLY-17841) (Yeast), UniProt B9W6M3); assay: blockers of CaCl2-induced CDRE-lacZ signaling – S. cerevisiae, luminescence, secondary, dose response (AID 2388); assay type: functional, cell-based;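 further: yeast reporter cells carrying a calcineurin-responsive lacZ construct stimulated with calcium chloride; luminescent beta-galactosidase reporter signal in whole cells rather than isolated phosphatase activity; potency for inhibition where a drop in reporter signal means calcineurin blockade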
T1 sequence (B9W6M3 whole entry): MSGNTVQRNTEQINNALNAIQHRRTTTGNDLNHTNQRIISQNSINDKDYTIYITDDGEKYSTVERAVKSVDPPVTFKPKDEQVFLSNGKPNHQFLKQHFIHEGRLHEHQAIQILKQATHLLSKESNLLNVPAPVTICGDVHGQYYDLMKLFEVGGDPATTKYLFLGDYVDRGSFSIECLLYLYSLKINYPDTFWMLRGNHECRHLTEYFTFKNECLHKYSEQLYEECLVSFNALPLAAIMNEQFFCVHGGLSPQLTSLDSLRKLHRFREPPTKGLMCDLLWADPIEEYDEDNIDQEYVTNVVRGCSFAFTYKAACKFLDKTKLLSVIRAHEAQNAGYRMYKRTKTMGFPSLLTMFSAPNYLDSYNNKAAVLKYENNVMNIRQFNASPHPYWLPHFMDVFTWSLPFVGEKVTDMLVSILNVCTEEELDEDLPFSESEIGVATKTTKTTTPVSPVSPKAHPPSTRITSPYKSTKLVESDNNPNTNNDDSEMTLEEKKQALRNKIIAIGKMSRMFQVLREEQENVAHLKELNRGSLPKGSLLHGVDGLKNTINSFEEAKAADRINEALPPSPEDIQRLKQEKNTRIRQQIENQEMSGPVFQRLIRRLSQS

[6] = target: T2, Microphthalmia-associated transcription factor (Homo sapiens, UniProt O75030); assay: reducers of TRPM1 reporter luminescence, concentration series – cell-based, SK-MEL-5, cherry-picked, set 3, MITF inhibitor project, dose response (AID 493073); assay type: functional;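 further: SK-MEL-5 melanoma cells with luciferase driven by the MITF target TRPM1 promoter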
T2 sequence (O75030 whole entry): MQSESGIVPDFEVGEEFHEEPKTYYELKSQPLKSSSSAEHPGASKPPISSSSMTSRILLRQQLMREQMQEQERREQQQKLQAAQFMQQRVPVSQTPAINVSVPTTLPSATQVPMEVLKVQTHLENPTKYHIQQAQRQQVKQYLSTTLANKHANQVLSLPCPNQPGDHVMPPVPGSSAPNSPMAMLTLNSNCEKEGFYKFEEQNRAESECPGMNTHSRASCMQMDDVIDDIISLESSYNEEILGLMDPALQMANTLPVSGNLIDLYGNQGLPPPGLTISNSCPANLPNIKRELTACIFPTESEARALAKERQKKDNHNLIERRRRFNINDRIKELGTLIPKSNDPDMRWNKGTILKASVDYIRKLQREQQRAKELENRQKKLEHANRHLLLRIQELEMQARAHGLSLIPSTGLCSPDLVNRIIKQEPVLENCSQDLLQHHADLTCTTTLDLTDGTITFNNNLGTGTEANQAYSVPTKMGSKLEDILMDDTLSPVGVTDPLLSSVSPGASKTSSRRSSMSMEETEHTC

A-375 = assay: MITF: Counter assay: A375 proliferation Measured in Cell-Based System Using Plate Reader - 2084-03_Inhibitor_Dose_DryPowder_Activity. [Related pubchem assays (depositor defined):AID488944]; assay type: functional; details: Homo sapiens
INS1 = assay: INS-1E survival protection against cytokine death – cell-based, luminescence, retest, dose response (AID 449756); assay type: functional; details: Rattus norvegicus;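 further: cell death triggered by IL-1 beta plus TNF-alpha plus IFN-gamma mixture; protective hits raise ATP signal compared with cytokine alone wells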
[7] = target: ATP-dependent molecular chaperone HSP82 (Candida albicans (strain WO-1) (Yeast), UniProt C4YTQ8); assay: steroid-induced GRE reporter decrease in yeast – S. cerevisiae, luminescence, Hsp90 inhibitor project, dose response (AID 2400); assay type: functional, cell-based;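 further: beta-galactosidase luminescence from glucocorticoid response element reporter as proxy for Hsp90 function; inhibitor potency where signal loss means Hsp90 inhibition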
[8] = target: T3, RNA-binding protein pos-1 (Caenorhabditis elegans, UniProt G5EF15); assay: disruptors of C. elegans POS-1 RNA interaction – biochemical, fluorescence polarization, dose response (AID 1964);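 further: purified POS-1 fused to maltose binding protein made in E. coli; potency of compounds blocking POS-1 binding to fluorescent RNA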
T3 sequence (G5EF15 whole entry): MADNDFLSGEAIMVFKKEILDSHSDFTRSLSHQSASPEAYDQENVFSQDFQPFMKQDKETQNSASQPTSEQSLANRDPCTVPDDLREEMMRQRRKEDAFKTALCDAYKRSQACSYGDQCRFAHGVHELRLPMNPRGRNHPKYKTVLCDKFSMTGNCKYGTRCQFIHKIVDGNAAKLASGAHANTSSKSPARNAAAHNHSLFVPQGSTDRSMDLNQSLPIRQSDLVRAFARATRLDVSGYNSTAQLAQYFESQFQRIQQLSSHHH

[9] = target: T4, Zinc finger protein mex-5 (Caenorhabditis elegans, UniProt Q9XUB2); assay: potency of MEX-5 RNA-binding blockers – biochemical, C. elegans, fluorescence polarization, dose response (AID 1960)
T4 sequence (Q9XUB2 whole entry): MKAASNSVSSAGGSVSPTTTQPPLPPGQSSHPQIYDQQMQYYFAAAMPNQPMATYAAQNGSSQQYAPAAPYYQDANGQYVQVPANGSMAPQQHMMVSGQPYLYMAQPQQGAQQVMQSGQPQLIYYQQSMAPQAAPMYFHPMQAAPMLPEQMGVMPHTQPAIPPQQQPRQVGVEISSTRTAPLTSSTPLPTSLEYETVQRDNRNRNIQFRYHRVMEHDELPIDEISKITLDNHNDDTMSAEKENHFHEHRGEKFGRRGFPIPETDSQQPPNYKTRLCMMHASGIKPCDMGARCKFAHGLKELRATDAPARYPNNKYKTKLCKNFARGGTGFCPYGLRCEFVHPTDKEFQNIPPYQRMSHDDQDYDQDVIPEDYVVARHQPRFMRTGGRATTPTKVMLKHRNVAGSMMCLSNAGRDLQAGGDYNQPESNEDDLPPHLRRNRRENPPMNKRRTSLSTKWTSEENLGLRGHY

Large T antigen = Large T antigen (Simian virus 40, UniProt P03070); assay type: functional, Betapolyomavirus macacae;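 further: Confirmatory-stage PubChem screen for compounds that inhibit SV40 T antigen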
HeLa = assay: viability loss in HeLa cells – cell-based, 24 h, cherry-picked samples, cytotoxicity control, dose response (AID 504726); assay type: functional; details: Homo sapiens;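 further: potency for cytotoxicity as loss of luminescence signal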
Salmon testes DNA = assay: acridine orange-DNA binding displacement – biochemical, fluorescence polarization, cherry-picked samples, set 2, artefact control for KSHV LANA DNA-binding inhibitor project, dose response (AID 504727); parameters: species or system Salmonidae
ORF 73 = target: T5, ORF 73 (Human herpesvirus 8, UniProt O40947); assay: KSHV LANA DNA-binding disruption – biochemical, fluorescence polarization, cherry-picked samples, dose response (AID 504725); parameters: species or system Human gammaherpesvirus 8;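 further: fluorescence polarization of a labeled DNA duplex reporting LANA DNA binding; potency is for inhibitors that block LANA binding to the DNA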
T5 sequence (O40947 whole entry): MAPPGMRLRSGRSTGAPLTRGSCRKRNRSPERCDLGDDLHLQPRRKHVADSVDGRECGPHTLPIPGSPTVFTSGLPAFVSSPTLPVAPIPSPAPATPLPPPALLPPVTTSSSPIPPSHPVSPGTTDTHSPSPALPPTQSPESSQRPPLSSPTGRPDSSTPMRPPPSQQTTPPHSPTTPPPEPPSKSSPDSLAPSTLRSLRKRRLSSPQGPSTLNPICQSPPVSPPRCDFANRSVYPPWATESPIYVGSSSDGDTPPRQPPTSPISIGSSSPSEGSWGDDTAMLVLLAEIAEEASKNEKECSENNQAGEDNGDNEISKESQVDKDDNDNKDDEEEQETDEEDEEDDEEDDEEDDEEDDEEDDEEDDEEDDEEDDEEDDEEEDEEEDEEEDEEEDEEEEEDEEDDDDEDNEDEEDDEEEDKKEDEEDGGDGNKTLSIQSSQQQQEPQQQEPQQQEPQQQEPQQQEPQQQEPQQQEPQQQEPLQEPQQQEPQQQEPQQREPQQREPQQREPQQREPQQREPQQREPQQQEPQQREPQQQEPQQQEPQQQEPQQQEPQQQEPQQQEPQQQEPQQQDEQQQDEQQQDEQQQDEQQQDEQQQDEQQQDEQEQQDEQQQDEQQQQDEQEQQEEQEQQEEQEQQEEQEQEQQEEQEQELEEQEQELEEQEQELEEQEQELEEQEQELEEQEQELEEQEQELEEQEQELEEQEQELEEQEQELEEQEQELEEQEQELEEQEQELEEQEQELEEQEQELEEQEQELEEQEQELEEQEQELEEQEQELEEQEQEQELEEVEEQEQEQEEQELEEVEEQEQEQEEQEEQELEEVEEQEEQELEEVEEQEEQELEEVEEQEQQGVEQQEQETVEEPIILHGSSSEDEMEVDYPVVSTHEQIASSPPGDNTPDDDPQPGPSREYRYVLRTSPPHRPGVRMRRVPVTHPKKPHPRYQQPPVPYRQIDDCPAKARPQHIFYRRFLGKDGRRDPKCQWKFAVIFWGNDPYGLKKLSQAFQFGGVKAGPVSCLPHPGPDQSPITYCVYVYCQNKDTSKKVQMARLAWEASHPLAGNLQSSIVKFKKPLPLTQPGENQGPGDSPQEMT

Keap1/Nrf2 = Keap1/Nrf2 (Homo sapiens, UniProt Q14145); assay: disruptors of Keap1 binding to Nrf2 peptide – biochemical, fluorescence polarization, cherry-picked samples, dose response (AID 588683)
[10] = target: T6, Histone-lysine N-methyltransferase NSD2 (Homo sapiens, UniProt O96028); assay type: biochemical
T6 sequence (O96028 whole entry): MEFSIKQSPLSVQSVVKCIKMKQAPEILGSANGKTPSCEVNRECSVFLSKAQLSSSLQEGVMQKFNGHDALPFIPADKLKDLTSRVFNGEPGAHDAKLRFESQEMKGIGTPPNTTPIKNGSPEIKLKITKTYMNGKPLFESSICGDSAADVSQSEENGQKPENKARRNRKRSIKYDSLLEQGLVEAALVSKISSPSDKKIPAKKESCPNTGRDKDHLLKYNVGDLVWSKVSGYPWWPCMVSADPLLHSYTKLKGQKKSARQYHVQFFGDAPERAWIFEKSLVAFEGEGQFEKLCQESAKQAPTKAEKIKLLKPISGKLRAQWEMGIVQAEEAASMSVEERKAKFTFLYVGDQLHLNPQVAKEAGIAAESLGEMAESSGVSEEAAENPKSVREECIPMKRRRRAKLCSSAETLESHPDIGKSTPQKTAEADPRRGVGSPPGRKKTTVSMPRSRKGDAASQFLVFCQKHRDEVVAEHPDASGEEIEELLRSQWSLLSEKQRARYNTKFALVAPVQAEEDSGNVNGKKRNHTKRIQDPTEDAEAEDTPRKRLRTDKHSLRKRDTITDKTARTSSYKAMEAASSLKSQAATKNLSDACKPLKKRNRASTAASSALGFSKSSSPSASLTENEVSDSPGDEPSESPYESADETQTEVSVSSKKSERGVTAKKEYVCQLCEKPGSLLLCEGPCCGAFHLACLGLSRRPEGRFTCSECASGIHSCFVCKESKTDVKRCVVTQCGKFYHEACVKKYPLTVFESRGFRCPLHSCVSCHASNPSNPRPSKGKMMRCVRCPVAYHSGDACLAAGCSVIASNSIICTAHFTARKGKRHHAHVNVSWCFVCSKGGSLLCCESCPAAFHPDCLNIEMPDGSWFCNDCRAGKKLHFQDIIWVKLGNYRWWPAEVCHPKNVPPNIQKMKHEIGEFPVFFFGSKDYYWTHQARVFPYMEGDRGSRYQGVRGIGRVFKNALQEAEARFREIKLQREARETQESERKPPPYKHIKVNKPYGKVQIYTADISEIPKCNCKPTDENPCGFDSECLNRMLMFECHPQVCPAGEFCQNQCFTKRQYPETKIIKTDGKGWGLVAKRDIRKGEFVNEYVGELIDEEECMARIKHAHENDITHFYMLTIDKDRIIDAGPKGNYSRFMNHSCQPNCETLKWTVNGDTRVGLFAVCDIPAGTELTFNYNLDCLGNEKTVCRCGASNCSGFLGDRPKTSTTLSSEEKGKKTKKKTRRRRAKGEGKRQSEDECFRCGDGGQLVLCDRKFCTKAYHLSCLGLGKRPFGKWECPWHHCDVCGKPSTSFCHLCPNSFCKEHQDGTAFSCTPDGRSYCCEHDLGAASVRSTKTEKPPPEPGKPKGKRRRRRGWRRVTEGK

[11] = target: Dual specificity protein kinase CLK1 (Homo sapiens, UniProt P49759); assay: inhibition of human CLK1 activity – biochemical, cherry-picked samples, selectivity assay for Dyrk1A inhibitor project, dose response (AID 588811)
Escherichia coli = assay: microbe, parasite or virus in culture
Beta-galactosidase = Beta-galactosidase (Escherichia coli, UniProt Q8VNN2); assay: PubChem AID 485352; assay type: functional
[12] = target: Type-1 angiotensin II receptor (Homo sapiens, UniProt P30556); assay: antagonism of angiotensin II type 1 receptor – cell-based, uHTS hits, selectivity assay for APJ receptor antagonist project, dose response (AID 463214); assay type: functional;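 further: antagonist potency against angiotensin II stimulated AT1 response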
Type-1 angiotensin II receptor, sequence (P30556 whole entry): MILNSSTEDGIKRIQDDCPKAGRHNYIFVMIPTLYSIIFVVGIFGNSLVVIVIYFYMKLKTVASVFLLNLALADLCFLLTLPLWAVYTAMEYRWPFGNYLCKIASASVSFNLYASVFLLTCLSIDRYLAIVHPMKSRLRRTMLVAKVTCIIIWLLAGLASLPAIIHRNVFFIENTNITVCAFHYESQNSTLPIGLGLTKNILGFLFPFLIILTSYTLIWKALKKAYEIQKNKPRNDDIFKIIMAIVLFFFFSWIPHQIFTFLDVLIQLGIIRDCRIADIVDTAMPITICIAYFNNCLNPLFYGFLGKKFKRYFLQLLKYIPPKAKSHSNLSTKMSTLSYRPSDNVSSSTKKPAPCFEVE

Dual specificity protein kinase CLK1, sequence (P49759 whole entry): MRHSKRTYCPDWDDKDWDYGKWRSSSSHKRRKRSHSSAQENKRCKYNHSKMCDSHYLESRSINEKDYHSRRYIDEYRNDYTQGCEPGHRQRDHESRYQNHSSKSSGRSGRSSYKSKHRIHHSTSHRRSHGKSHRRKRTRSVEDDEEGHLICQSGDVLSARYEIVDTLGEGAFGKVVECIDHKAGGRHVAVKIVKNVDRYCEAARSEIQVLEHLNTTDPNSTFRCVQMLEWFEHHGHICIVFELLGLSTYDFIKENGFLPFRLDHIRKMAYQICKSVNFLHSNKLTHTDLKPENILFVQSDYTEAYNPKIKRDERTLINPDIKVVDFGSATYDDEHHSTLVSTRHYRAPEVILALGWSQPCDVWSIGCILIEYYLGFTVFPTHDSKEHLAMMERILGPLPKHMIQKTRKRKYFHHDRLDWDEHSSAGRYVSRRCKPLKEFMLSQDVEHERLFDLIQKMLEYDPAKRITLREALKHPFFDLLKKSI
Keap1/Nrf2, sequence (Q16236 whole entry): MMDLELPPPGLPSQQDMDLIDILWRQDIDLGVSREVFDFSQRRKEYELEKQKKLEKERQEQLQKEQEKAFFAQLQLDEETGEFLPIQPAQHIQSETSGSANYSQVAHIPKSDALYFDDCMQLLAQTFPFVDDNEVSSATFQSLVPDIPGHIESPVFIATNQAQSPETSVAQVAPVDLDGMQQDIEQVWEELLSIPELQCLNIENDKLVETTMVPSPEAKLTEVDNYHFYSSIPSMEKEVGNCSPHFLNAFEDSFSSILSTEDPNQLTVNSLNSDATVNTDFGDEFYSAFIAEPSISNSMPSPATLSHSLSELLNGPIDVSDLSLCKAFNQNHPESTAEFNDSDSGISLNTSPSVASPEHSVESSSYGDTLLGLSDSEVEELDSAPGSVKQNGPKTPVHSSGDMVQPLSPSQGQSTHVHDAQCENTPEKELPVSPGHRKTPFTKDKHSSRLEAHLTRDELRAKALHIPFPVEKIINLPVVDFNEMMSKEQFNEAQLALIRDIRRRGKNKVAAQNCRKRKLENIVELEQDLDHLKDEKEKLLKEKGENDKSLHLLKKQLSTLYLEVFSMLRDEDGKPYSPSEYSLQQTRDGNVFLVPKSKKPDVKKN
Keap1/Nrf2, sequence (Q14145 whole entry): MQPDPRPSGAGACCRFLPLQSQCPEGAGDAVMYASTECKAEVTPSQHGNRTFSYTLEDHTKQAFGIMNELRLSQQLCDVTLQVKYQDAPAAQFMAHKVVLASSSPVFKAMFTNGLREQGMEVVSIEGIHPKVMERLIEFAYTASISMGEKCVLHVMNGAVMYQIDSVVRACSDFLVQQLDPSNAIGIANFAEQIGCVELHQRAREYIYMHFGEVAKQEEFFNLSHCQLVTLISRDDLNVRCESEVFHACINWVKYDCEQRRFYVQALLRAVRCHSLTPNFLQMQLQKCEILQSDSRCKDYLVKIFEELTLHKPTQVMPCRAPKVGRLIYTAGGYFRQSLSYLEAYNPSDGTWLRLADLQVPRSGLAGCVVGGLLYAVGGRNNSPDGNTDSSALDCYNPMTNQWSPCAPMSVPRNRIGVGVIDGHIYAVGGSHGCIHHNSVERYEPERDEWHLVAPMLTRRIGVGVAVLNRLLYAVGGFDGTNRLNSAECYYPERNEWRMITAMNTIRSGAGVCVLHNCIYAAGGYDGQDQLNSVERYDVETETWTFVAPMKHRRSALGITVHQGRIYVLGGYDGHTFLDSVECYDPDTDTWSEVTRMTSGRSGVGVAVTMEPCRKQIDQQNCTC
Beta-galactosidase, sequence (Q8VNN2 whole entry): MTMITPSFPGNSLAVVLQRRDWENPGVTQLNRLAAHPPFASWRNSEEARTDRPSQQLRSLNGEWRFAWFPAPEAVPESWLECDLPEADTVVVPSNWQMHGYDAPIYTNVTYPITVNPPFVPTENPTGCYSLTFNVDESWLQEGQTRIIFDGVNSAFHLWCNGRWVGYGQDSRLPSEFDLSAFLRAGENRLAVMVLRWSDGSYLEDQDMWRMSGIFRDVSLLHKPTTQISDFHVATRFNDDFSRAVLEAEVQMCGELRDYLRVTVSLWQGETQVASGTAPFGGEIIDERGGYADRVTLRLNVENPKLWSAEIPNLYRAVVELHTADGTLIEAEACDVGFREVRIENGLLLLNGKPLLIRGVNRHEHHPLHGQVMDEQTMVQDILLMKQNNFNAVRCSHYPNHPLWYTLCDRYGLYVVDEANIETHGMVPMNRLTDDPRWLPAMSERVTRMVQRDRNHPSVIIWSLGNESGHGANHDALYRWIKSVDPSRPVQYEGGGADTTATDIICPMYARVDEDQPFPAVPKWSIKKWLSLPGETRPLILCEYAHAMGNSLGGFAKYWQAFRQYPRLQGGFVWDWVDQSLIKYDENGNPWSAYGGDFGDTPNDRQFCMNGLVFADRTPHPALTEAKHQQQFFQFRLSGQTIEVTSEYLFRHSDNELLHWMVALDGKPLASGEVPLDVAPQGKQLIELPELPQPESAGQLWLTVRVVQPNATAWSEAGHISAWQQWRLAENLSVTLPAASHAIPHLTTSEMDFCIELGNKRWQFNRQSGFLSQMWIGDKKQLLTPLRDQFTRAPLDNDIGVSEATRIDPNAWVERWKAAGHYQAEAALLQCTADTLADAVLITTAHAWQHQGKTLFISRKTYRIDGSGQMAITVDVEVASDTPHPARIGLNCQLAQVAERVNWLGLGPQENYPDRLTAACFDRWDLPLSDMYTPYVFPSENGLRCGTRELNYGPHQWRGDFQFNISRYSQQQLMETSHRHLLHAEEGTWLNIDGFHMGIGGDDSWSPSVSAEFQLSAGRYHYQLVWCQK
Large T antigen, sequence (P03070 whole entry): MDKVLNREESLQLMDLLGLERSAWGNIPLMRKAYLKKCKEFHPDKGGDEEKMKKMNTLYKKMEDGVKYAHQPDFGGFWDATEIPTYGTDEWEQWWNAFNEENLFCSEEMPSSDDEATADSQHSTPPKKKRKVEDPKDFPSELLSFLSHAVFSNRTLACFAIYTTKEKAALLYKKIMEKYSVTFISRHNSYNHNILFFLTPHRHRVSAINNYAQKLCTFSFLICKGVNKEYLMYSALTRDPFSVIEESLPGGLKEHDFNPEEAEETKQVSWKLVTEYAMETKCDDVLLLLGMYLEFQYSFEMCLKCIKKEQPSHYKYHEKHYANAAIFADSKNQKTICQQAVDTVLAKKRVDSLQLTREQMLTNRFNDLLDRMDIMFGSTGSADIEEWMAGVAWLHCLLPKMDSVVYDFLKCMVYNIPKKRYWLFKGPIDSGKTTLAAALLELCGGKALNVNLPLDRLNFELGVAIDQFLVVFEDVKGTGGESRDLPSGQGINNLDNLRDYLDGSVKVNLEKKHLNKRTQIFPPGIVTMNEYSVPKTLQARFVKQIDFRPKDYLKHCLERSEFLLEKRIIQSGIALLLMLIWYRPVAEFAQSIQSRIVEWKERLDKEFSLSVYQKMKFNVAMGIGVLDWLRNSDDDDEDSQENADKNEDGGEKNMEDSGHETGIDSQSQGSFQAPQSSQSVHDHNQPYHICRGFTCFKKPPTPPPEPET
ATP-dependent molecular chaperone HSP82, sequence (C4YTQ8 whole entry, the tested form may be a part): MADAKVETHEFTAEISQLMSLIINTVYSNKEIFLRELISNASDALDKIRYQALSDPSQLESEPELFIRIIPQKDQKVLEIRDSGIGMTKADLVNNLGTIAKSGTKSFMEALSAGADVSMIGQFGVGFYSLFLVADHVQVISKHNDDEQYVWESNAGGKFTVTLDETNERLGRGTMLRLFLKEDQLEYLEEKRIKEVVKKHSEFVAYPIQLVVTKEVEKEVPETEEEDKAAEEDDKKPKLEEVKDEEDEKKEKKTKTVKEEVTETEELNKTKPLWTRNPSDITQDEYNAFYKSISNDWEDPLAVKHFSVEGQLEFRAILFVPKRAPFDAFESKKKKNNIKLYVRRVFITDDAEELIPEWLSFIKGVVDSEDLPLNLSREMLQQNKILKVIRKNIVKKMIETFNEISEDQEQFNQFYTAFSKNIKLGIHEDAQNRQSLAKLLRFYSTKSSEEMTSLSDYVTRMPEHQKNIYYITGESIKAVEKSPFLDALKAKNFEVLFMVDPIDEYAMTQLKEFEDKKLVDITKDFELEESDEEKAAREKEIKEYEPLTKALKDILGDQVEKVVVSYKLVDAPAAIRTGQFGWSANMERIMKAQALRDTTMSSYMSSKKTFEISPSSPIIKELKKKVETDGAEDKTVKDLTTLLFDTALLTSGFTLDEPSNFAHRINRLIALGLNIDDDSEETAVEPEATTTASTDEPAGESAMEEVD

SMILES: CCN(CC)c1ccc(/C=N/NC(=O)c2cccc(S(=O)(=O)N3CCOCC3)c2)c(O)c1
EC50 [1]: 12.5 µM (inconclusive)
EC50 (cells [2]): 2.85 µM (active)
EC50 [3]: 0.769 µM (active)
EC50 (cells [4]): 28.5 µM (active)
EC50 [5]: > 180 µM (inactive)
AC50 [6]: 1.52 µM (active)
AC50 (A-375): 47.2 µM (active)
AC50 (INS1): 0.358 µM (active)
EC50 [7]: > 160 µM (inactive)

SMILES: O=C(O)CCNc1ccc(NCCC(=O)O)c2c1C(=O)c1ccccc1C2=O
EC50 [8]: 12.9 µM (active)
EC50 [9]: 15.3 µM (inconclusive)
IC50 (Large T antigen): 26.7 µM (active)
AC50 (HeLa): 35 µM (active)
AC50 (Salmon testes DNA): 37.8 µM (active)
AC50 (ORF 73): 22.8 µM (active)
AC50 (Keap1/Nrf2): > 52 µM (inactive)
AC50 [10]: 11.2 µM (active)

AC50 [11]: 15.7 µM (active)
SMILES: FC(F)(F)c1cccc(Nc2nccc(-c3ccc4c(c3)OCO4)n2)c1

SMILES: CCc1nc2nc(C)c(NS(=O)(=O)c3ccc(Cl)s3)c(O)n2n1
AC50 (Escherichia coli): 65.8 µM (active)

EC50 (Beta-galactosidase): > 40 µM (inactive)
IC50 [12]: 39.4 µM (not active)
SMILES: O=C(OCC(=O)c1ccc(Cl)cc1Cl)c1ccc2c(c1)C(=O)N(c1cccc3ncccc13)C2=O
